# Results from patent US11992620B2, “Methods of reducing the risk of mortality associated with a medical treatment” (Mallinckrodt Hospital Products IP Limited, priority 2013, dated 2024).
# Read-outs that look alike come from different tables or passages of the source.
# Experiments:
# pre-term neonates [1] = settings: 10 ppm for 1 day, then 5 ppm for 6 days, cited from earlier work
# pre-term neonates [2] = settings: 5 ppm for 7-21 days, cited from earlier work
# pre-term neonates [3] = settings: 5 ppm for 7 days, cited from earlier work
# pre-term neonates [4] = settings: 5 ppm while intubated, cited from earlier work
# pre-term neonates [5] = settings: cited from earlier work
# [6] = system: preterm neonates less than 30 weeks gestational age and less than 1250 grams; experiment: BPD-301 study: multi-center, double blind, placebo-controlled randomized clinical trial of inhaled nitric oxide for prevention of BPD; format: in vivo, human; parameters: Mortality by race, % / ALIVE No (mortality rate), %: concentration or dose not given beside the values; settings: for Mortality by race, %: INO N = 229
# Description: A multi-center, double blind, placebo-controlled randomized clinical trial designated the “BPD-301” study was conducted to examine the efficacy of inhaled nitric oxide in preventing BPD in preterm neonates less than 30 weeks gestational age and less than 1250 grams who required mechanical ventilation or positive pressure support. Patients were identified as (1) American Indian or Alaska Native, (2) Asian, (3) Black, (4) Hispanic, (5) White, or (6) Other. Continuous inhaled nitric oxide or placebo gas administration into the inspiratory limb of the ventilator circuit in the mechanically ventilated subject was accomplished using an INOvent® delivery device. The placebo group received the same dose of nitrogen that the active or treatment group received of inhaled nitric oxide. Administration of inhaled nitric oxide or placebo was begun at a point during the window of time 5 to 14 days after the subject's birth and continued for 24 days thereafter. The starting dose was 20 ppm. A dose reduction schedule was followed: after 72 hours of treatment at 20 ppm, reducing to 10 ppm, and then reducing to 5 ppm on day 10. If an infant was extubated before 24 days, therapy was continued via nasal continuous positive airway pressure or nasal cannula to complete the protocol. 451 infants less than 30 weeks of gestation age were included in this trial, of which 449 were randomized and 2 were not randomized. There was a 1:1 randomization with 220 infants treated with placebo and 229 treated with inhaled nitric oxide.
# In order to enroll in the BPD 301 study and receive inhaled nitric oxide for the prevention of BPD, a pre-term neonate could not have already previously been administered inhaled nitric oxide.
# Additionally, if the pre-term neonate had undiagnosed pulmonary hypertension and happened to be placed on placebo (nitrogen) for purposes of the BPD-301 study, the pre-term neonate's hypoxic respiratory failure would have worsened and would have likely required immediate treatment with commercial inhaled nitric oxide. This administration of commercial inhaled nitric oxide would have failed the subject from the trial, both reducing the power of the trial and eliminating the subject from the study analysis.
# A synopsis of the BPD-301 protocol follows.
# The placebo and treatment groups were matched for the following characteristics: gestational age, age at the start of treatment, sex, length at birth, weight, head circumference, respiratory severity scores, apgar scores, and physical exam results.
# pre-term neonates [7] = settings: 5 ppm increased to 10 ppm if no response; mean 3 days therapy; cited from earlier work
# [8] = system: experimental BPD in preterm lambs; settings: prolonged therapy, cited from earlier work
# [9] = median treatment duration 14 days
# [10] = FEMALE N = 64, inhaled nitric oxide-treated white infants less than 27 weeks gestational age
smiles,measurement,setting,value
"[N]=O [inhaled nitric oxide, nitric oxide]",CLD/death,pre-term neonates [1],48.6%
same,severe IVH/PVL,pre-term neonates [1],12.4%
same,"reduction in ""abnormal or delayed"" development",pre-term neonates [1]; p=0.01,47%
same,reduction in CLD/death,"pre-term neonates [1]; vs placebo, p=0.03",24%
same,reduction in severe IVH/PVL,"pre-term neonates [1]; vs placebo, p=0.04",47%
same,survival without BPD at 36 weeks postmenstrual age,pre-term neonates [2],65%
same,survival without BPD at 36 weeks postmenstrual age vs placebo,pre-term neonates [2]; p=0.73,no difference
same,death or BPD,pre-term neonates [3],77%
same,severe intraventricular haemorrhage (IVH),pre-term neonates [3],no increase
same,reduction in death or BPD,"pre-term neonates [3]; vs placebo, p=0.14",15.4%
same,IVH/PVL,pre-term neonates [4],17.5%
same,CLD or death,pre-term neonates [4]; [9],71.6%
same,CLD or death vs placebo,pre-term neonates [4]; [9],no difference
same,reduction in IVH/PVL,pre-term neonates [4]; vs placebo,27%
same,survival without CLD at 36 weeks postmenstrual age,"pre-term neonates [5]; 20 ppm for 2 to 4 days, then stepped-down weekly, 24 days",43.9%
same,improvement in survival without CLD at 36 weeks postmenstrual age,"pre-term neonates [5]; 20 ppm for 2 to 4 days, then stepped-down weekly, 24 days, vs placebo, p=0.042",20%
same,discharged or off all ventilator support,"pre-term neonates [5]; 40 weeks, p=0.01",65%
same,discharged or off all ventilator support,"pre-term neonates [5]; 44 weeks, p=0.03",82%
same,"Mortality by race, %","[6]; ALL, p=0.436 vs placebo, Fisher's exact test",11.35%
same,"Mortality by race, %",[6]; American Indian or Alaska Native,0.00%
same,"Mortality by race, %",[6]; Asian,0.00%
same,"Mortality by race, %",[6]; Black,2.62%
same,"ALIVE No (mortality rate), %",[6]; [10],4.7%
same,"ALIVE Yes, %",[6]; [10],95.3%
same,"Mortality by race, %",[6]; Hispanic,1.31%
same,"ALIVE No (mortality rate), %","[6]; MALE N = 56, inhaled nitric oxide-treated white infants less than 27 weeks gestational age",21.4%
same,"ALIVE Yes, %","[6]; MALE N = 56, inhaled nitric oxide-treated white infants less than 27 weeks gestational age, p=0.011 male vs female",78.6%
same,"Mortality by race, %",[6]; Native Hawaiian or other Pacific Islander,0.00%
same,"Mortality by race, %",[6]; Other,0.87%
same,"Mortality by race, %",[6]; White,6.55%
same,difference in mortality between treatment and placebo groups,[6]; any other racial category (than white),no similar difference
same,"mortality rate, inhaled nitric oxide vs placebo group","[6]; overall trial population, Fisher's exact test p=0.436",not significantly different
same,mortality rate vs placebo group,[6]; white population,higher mortality rate
same,"ALIVE No (deaths), %","[6]; white preterm infants less than 27 weeks gestational age, INO N = 120",12.5%
same,"ALIVE Yes, %","[6]; white preterm infants less than 27 weeks gestational age, INO N = 120, p=0.010 vs placebo",87.5%
same,risk of death as compared to placebo,"[6]; white, male, preterm infants of less than 27 weeks gestational age treated for prevention of BPD",significant risk of death
same,IVH vs placebo,pre-term neonates [7],no difference
same,death or BPD vs placebo,pre-term neonates [7],no difference
same,lung vascular growth,[8]; after VEGF inhibition,improves lung vascular growth
same,alveolarization,[8]; experimental BPD in preterm lambs,improves alveolarization
